Measurements from patent US5760027A, “Use of 7-alkylidene cephalosporins to inhibit elastase activity” (Research Corporation Technologies, Inc., priority 1996, dated 1998).
pIC50: −log10 of the molar value.

How the values were obtained:
HLE = molecular target: T1, HLE (Homo sapiens, UniProt P08246); assay: inhibition of HLE followed as a function of time (FIG. 1); format: biochemical; settings: 10-fold molar excess of inhibitor, assayed at regular intervals (2 to 5 minutes)
T1 construct: chromogenic substrate MeOSuc-AAPV-pNA
T1 sequence (P08246 30-267): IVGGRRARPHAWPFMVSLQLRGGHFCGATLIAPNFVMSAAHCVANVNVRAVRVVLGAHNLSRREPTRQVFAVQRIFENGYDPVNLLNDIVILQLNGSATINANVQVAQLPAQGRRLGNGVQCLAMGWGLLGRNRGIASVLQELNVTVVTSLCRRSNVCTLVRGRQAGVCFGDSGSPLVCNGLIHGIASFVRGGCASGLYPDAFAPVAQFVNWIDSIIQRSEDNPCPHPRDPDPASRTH
Description: To further document the rapid, irreversible inhibition of this enzyme at low, nearly stoichiometric ratios of inhibitor to enzyme, for selected compounds, this inhibition was followed as a function of time.
The data in FIG. 1 were generated by incubating the enzyme with a 10-fold molar excess of inhibitor. Assays of residual enzymatic activity of this mixture were assayed at regular intervals (2 to 5 minutes).

[1] = molecular target: porcine pancreatic elastase (PPE) (Sus scrofa, UniProt P00772); assay: IC50 determination, inhibition of porcine pancreatic elastase (PPE); format: biochemical; settings: 5 min incubation with the inhibitor
[2] = molecular target: T2, human leukocyte elastase (HLE) (Homo sapiens, UniProt P08246); assay: IC50 determination, inhibition of human leukocyte elastase (HLE), hydrolysis of N-(methoxysuccinyl)-L-alanyl-L-alanyl-L-prolyl-L-valine 4-nitroanilide at 410 nm; format: biochemical; settings: 5 min incubation with the inhibitor; pH 7.5 Tris buffer
T2 construct: purchased Elastin Products Company, Inc. (Owensville, Mo.)
T2 sequence (P08246 30-267): T1 sequence (P08246 30-267)

b-lactamase = settings: commercial b-lactamase inhibitors, for comparison; cited from earlier work

Sequence of porcine pancreatic elastase (PPE) (P00772 27-266): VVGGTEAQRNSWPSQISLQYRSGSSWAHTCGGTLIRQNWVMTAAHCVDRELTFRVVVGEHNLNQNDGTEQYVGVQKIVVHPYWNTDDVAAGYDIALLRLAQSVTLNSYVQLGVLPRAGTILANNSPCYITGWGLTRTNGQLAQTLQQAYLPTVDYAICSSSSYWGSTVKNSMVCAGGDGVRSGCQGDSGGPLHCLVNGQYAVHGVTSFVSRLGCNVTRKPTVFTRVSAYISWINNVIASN

| SMILES | pIC50 [1] | pIC50 [2] | residual HLE activity / inhibition as a function of time (HLE) | ratio at which inhibitor must be used (b-lactamase) |
| --- | --- | --- | --- | --- |
| CC(=O)OCC1=C(C(=O)OC(c2ccccc2)c2ccccc2)N2C(=O)C(=C(Br)Br)[C@H]2SC1 [Compound 13, Benzhydryl 7-[dibromomethylene]cephalosporanate] | 5.19 | 6.59 | extremely rapid and efficient inhibitor of HLE | – |
| CC(=O)OCC1=C(C(=O)OC(c2ccccc2)c2ccccc2)N2C(=O)C(=C(Br)Br)[C@H]2S(=O)(=O)C1 [Compound 14, Benzhydryl 7-[dibromomethylene]cephalosporanate sulfone] | 5.32 | 5.68 | very potent, irreversible inhibitors of HLE | – |
| O=C(O)[C@H]1/C(=C/CO)O[C@@H]2CC(=O)N21 [clavulanic acid] | – | – | – | 200 to 1 |

Now from value to molecule, other results behind:

| pIC50 [1] | pIC50 [2] | SMILES | residual HLE activity / inhibition as a function of time (HLE) | ratio at which inhibitor must be used (b-lactamase) |
| --- | --- | --- | --- | --- |
| 5.02 | 6.41 | CC(=O)OCC1=C(C(=O)OC(c2ccccc2)c2ccccc2)N2C(=O)/C(=C\Br)[C@H]2SC1 [Compound 15, Benzhydryl 7-[(E)-bromomethylene]cephalosporanate] | very potent, irreversible inhibitors of HLE | – |
| 5.60 | 5.47 | CC(=O)OCC1=C(C(=O)OC(c2ccccc2)c2ccccc2)N2C(=O)/C(=C\Br)[C@H]2S(=O)(=O)C1 [Compound 16, Benzhydryl 7-[(E)-bromomethylene]cephalosporanate sulfone] | leveling off and allowing the enzyme to regain its activity | – |
| < 5.00 | 5.19 | CC(=O)OCC1=C(C(=O)OC(c2ccccc2)c2ccccc2)N2C(=O)C(=C(Cl)Cl)[C@H]2SC1 [Compound 22, Benzhydryl 7-[dichloromethylene]cephalosporanate] | very potent, irreversible inhibitors of HLE | – |
| < 5.00 | 5.59 | COC(=O)/C=C1/C(=O)N2C(C(=O)OC(c3ccccc3)c3ccccc3)=C(COC(C)=O)CS[C@H]12 [Compound 24, Benzhydryl 7-[(Z)-methoxycarbonylmethylene]cephalosporanate] | very potent, irreversible inhibitors of HLE | – |
| < 5.00 | 5.37 | CC(=O)/C=C1/C(=O)N2C(C(=O)OC(c3ccccc3)c3ccccc3)=C(COC(C)=O)CS[C@H]12 [Compound 28, Benzhydryl 7-[(Z)-acetylmethylene]cephalosporanate] | leveling off and allowing the enzyme to regain its activity | – |
